This experiment relates to HD3 with inactivated substrate (rA to dA at cleavage site) (DNA, ribozyme, dA in place of rA at the cleavage site of the substrate strand) CATCTCTTAACGGGGCTGTGCGGCTAGGAAGTAATAGTGAG/CTCACTATAGGAAGAGATG
Briefly: CD titration at 267 nm. The following applies: 500 mM Na+ (NaCl), 500 mM K+ (KCl), no Mg2+; 50 mM HEPES pH 7.5, 0.5 mM EDTA, 25 °C; 30 µM DNA; 0-10 mM histidine.

SMILES strings stand for the structures.

Turning to `N[C@@H](Cc1cnc[nH]1)C(=O)O`, the “Ka(CD)” value was ~ 2.0 × 10^3 M^-1.
